How the values were obtained:
A549 cells = assay: Measurement of PGE2-increasing activity in A549 cells (IL-1β stimulated, PGE2 quantified in supernatant); type: cell-based; conditions: Homo sapiens, 24 h; concentration of 1 µM of each compound; IL-1β treated A549 cells; read-out: Increased PGE2 production in A549 cells
Summary of the method: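 A549 cells grown 24 h in F12K with 10% FBS, then switched to serum-free medium with or without IL-1β and compound (0.1% DMSO final). After 24 h at 37 °C, 5% CO2, supernatant PGE2 quantified by immunoassay.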

human 15-PGDH = target: T1, human 15-PGDH (Homo sapiens, UniProt P15428); assay: Evaluation of 15-PGDH inhibitory activity (fluorescence enzyme assay, NAD+/PGE2); type: biochemical; conditions: human 15-PGDH enzyme, fluorescence Vmax
T1 construct: purchased R&D System 5660-DH
T1 sequence (P15428 1-266): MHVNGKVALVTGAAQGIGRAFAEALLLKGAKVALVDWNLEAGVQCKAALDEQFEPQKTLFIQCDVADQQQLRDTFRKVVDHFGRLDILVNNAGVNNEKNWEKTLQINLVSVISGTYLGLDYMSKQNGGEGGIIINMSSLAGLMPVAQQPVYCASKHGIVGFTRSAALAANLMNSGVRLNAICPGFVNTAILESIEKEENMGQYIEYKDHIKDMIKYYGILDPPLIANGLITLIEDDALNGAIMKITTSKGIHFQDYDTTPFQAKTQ
Description: 15-PGDH inhibition activity of Example compounds was measured as follows. 6.7 ng of human 15-PGDH (R&D System# 5660-DH) enzyme (10 µL) was added to a black 96 well plate, 60 µL of buffer (50 mM Tris-HCl, pH 7.5, 0.01% Tween 20) was added, and 10 µL of 200 µM β-Nicotinamide adenine dinucleotide sodium salt (Sigma, Cat# N0632-5G) was added. 10 µL of (10x) compound solution in DMSO was added and reacted for 10 minutes at room temperature.

Row | IC50 (human 15-PGDH) [nM] | SMILES | fold induction at 1 µM (A549 cells)
1 | ≤ 100 | O=C(c1cnn2c(-c3cc(-c4ncon4)cc([N+](=O)[O-])c3)cccc12)N1CCCCC1 [Example 342, (7-(3-nitro-5-(1,2,4-oxadiazol-3-yl)phenyl)pyrazolo[1,5-a]pyridin-3-yl)(piperidin-1-yl)methanone] | > 1.5
2 | ≤ 100 | N#Cc1ccc(-c2cccc3c(C(=O)N4CCCCC4)cnn23)cc1 [Example 15, 4-(3-(piperidine-1-carbonyl)pyrazolo[1,5-a]pyridin-7-yl)benzonitrile] | > 1.5
3 | ≤ 100 | O=C(Nc1ccnnc1)c1cncc(-c2cccc3c(C(=O)N4CCCCC4)cnn23)c1 [Example 56, 5-(3-(piperidine-1-carbonyl)pyrazolo[1,5-a]pyridin-7-yl)-N-(pyridazin-4-yl)nicotinamide] | > 1.5
4 | ≤ 100 | O=C(c1cnn2c(-c3ccc(N4CC5CCC4C5)nc3)cccc12)N1CCCCC1 (centres unmarked) [Example 215, (7-(6-(2-azabicyclo[2.2.1]heptan-2-yl)pyridin-3-yl)pyrazolo[1,5-a]pyridin-3-yl)(piperidin-1-yl)methanone] | > 1.5
5 | ≤ 100 | CC(C)N1CCN(C(=O)c2ccc(-c3cccc4c(C(=O)N5CCCCC5)cnn34)cn2)CC1 [Example 84, (4-isopropylpiperazin-1-yl)(5-(3-(piperidine-1-carbonyl)pyrazolo[1,5-a]pyridin-7-yl)pyridin-2-yl)methanone] | > 1.5
6 | ≤ 100 | O=C(c1cnn2c(-c3cc(Br)cnc3N3CC(CO)C3)cccc12)N1CCCCC1 [Example 363, (7-(5-bromo-2-(3-(hydroxymethyl)azetidin-1-yl)pyridin-3-yl)pyrazolo[1,5-a]pyridin-3-yl)(piperidin-1-yl)methanone] | < 1.5
7 | ≤ 100 | COCCNC(=O)c1cccc(-c2cccc3c(C(=O)N4CCCCC4)cnn23)c1 [Example 30, N-(2-methoxyethyl)-3-(3-(piperidine-1-carbonyl)pyrazolo[1,5-a]pyridin-7-yl)benzamide] | > 1.5
8 | ≤ 100 | CN1CCC(C(=O)Nc2ccc(-c3cccc4c(C(=O)N5CCCCC5)cnn34)cc2)CC1 [Example 99, 1-methyl-N-(4-(3-(piperidine-1-carbonyl)pyrazolo[1,5-a]pyridin-7-yl)phenyl)piperidine-4-carboxamide] | < 1.5
9 | ≤ 100 | O=C(c1cnn2c(-c3cncc(F)c3)cccc12)N1CCCCC1 [Example 284, (7-(5-fluoropyridin-3-yl)pyrazolo[1,5-a]pyridin-3-yl)(piperidin-1-yl)methanone] | > 1.5
10 | ≤ 100 | O=C(Cc1cncc(F)c1)Nc1ccc(-c2cccc3c(C(=O)N4CCCCC4)cnn23)cn1 [Example 409, 2-(5-fluoropyridin-3-yl)-N-(5-(3-(piperidine-1-carbonyl)pyrazolo[1,5-a]pyridin-7-yl)pyridin-2-yl)acetamide] | > 1.5
11 | ≤ 100 | CN1CCC(NC(=O)c2cncc(-c3cccc4c(C(=O)N5CCCCC5)cnn34)c2)CC1 [Example 47, N-(1-methylpiperidin-4-yl)-5-(3-(piperidine-1-carbonyl)pyrazolo [1,5-a]pyridin-7-yl)nicotinamide] | > 1.5
12 | ≤ 100 | O=C(c1cnn2c(NCCc3ccc(Cl)cc3)cccc12)N1CCCCC1 [Example 242, [7-[2-(4-chlorophenyl)ethylamino]pyrazolo[1,5-a]pyridin-3-yl]-(1-piperidyl)methanone] | < 1.5
13 | ≤ 100 | O=C(c1cnn2c(-c3ccc(N4CCC4)nc3)cccc12)N1CCCCC1 [Example 206, (7-(6-(azetidin-1-yl)pyridin-3-yl)pyrazolo[1,5-a]pyridin-3-yl)(piperidin-1-yl)methanone] | > 1.5
14 | ≤ 100 | O=C(c1cnn2c(-c3cnc(-c4nnc(C(F)(F)F)o4)c(F)c3)cccc12)N1CCCCC1 [Example 394, [7-[5-fluoro-6-[5-(trifluoromethyl)-1,3,4-oxadiazol-2-yl]-3-pyridyl]pyrazolo[1,5-a]pyridin-3-yl]-(1-piperidyl)methanone] | > 1.5
15 | ≤ 100 | Nc1n[nH]c2ccc(-c3cccc4c(C(=O)N5CCCCC5)cnn34)cc12 [Example 260, [7-(3-amino-1H-indazol-5-yl)pyrazolo[1,5-a]pyridin-3-yl]-(1-piperidyl)methanone] | > 1.5
16 | ≤ 100 | O=C(c1cncc(-c2cccc3c(C(=O)N4CCCCC4)cnn23)c1)N1CCC2(CC1)COC2 [Example 226, 2-oxa-7-azaspiro[3.5]nonan-7-yl-[5-[3-(piperidine-1-carbonyl)pyrazolo[1,5-a]pyridin-7-yl]-3-pyridyl]methanone] | > 1.5

Row | IC50 (human 15-PGDH) [nM] | SMILES | fold induction at 1 µM (A549 cells)
17 | ≤ 100 | COCCC(=O)Nc1cccc(-c2cccc3c(C(=O)N4CCCCC4)cnn23)c1 [Example 91, 3-methoxy-N-(3-(3-(piperidine-1-carbonyl)pyrazolo[1,5-a]pyridin-7-yl)phenyl)propanamide] | > 1.5
18 | ≤ 100 | O=C(c1cccc(-c2cccc3c(C(=O)N4CCCCC4)cnn23)c1)N1CCOCC1 [Example 26, (7-(3-(morpholine-4-carbonyl)phenyl)pyrazolo[1,5-a]pyridin-3-yl)(piperidin-1-yl)methanone] | > 1.5
19 | ≤ 100 | O=C(c1cnn2c(-c3cnc(Cl)c(F)c3)cccc12)N1CCCCC1 [Example 281, (7-(6-chloro-5-fluoropyridin-3-yl)pyrazolo[1,5-a]pyridin-3-yl)(piperidin-1-yl)methanone] | > 1.5
20 | ≤ 100 | O=C(c1cnn2c(-c3ccc(NCCc4cccnc4)nc3)cccc12)N1CCCCC1 [Example 332, piperidin-1-yl(7-(6-((2-(pyridin-3-yl)ethyl)amino)pyridin-3-yl)pyrazolo[1,5-a]pyridin-3-yl)methanone] | > 1.5
21 | ≤ 100 | O=C1NCc2ccc(-c3cccc4c(C(=O)N5CCC(F)CC5)cnn34)cc21 [Example 155, 6-(3-(4-fluoropiperidine-1-carbonyl)pyrazolo[1,5-a]pyridin-7-yl)isoindolin-1-one] | > 1.5
22 | ≤ 100 | CN1CCC(NC(=O)c2ccc(-c3cccc4c(C(=O)N5CCCCC5)cnn34)cc2)CC1 [Example 65, N-(1-methylpiperidin-4-yl)-4-(3-(piperidine-1-carbonyl)pyrazolo[1,5-a]pyridin-7-yl)benzamide] | < 1.5
23 | ≤ 100 | CCC1CCCN(C(=O)c2cnn3c(-c4ccc(F)nc4)cccc23)C1 (centres unmarked) [Example 337, (3-ethylpiperidin-1-yl)(7-(6-fluoropyridin-3-yl)pyrazolo[1,5-a]pyridin-3-yl)methanone] | > 1.5
24 | ≤ 100 | O=C(c1cnn2c(-c3ccc(-c4ccsc4)cc3)cccc12)N1CCCCC1 [Example 347, 1-piperidyl-[7-[4-(3-thienyl)phenyl]pyrazolo[1,5-a]pyridin-3-yl]methanone] | < 1.5
25 | ≤ 100 | N#Cc1cc(-c2cccc3c(C(=O)N4CCCCC4)cnn23)ccc1F [Example 254, 2-fluoro-5-[3-(piperidine-1-carbonyl)pyrazolo[1,5-a]pyridin-7-yl]benzonitrile] | > 1.5
26 | ≤ 100 | Cc1noc(C)c1-c1cc(-c2cccc3c(C(=O)N4CCCCC4)cnn23)cc(N2CCOC2=O)n1 [Example 368, 3-(6-(3,5-dimethylisoxazol-4-yl)-4-(3-(piperidine-1-carbonyl)pyrazolo[1,5-a]pyridin-7-yl)pyridin-2-yl)oxazolidin-2-one] | > 1.5
27 | ≤ 100 | O=C(Nc1ccncc1)c1cncc(-c2cccc3c(C(=O)N4CCCCC4)cnn23)c1 [Example 54, 5-(3-(piperidine-1-carbonyl)pyrazolo[1,5-a]pyridin-7-yl)-N-(pyridin-4-yl)nicotinamide] | > 1.5
28 | ≤ 100 | CN(C)CCNC(=O)c1cccc(-c2cccc3c(C(=O)N4CCCCC4)cnn23)c1 [Example 31, N-(2-(dimethylamino)ethyl)-3-(3-(piperidine-1-carbonyl)pyrazolo[1,5-a]pyridin-7-yl)benzamide] | < 1.5
29 | ≤ 100 | COCCC(=O)Nc1ccc(-c2cccc3c(C(=O)N4CCCCC4)cnn23)cc1 [Example 98, 3-methoxy-N-(4-(3-(piperidine-1-carbonyl)pyrazolo[1,5-a]pyridin-7-yl)phenyl)propanamide] | > 1.5
30 | ≤ 100 | N#Cc1ccc(-c2cccc3c(C(=O)N4CCCCC4)cnn23)cn1 [Example 18, 5-(3-(piperidine-1-carbonyl)pyrazolo[1,5-a]pyridin-7-yl)picolinonitrile] | > 1.5
31 | 100 to 1000 | Nc1nn2c(-c3ccc4c(c3)C(=O)NCC4)cccc2c1C(=O)N1CCCCC1 [Example 159, 7-(2-amino-3-(piperidine-1-carbonyl)pyrazolo[1,5-a]pyridin-7-yl)-3,4-dihydroisoquinolin-1(2H)-one] | > 1.5
